Measurements published in ChEMBL document CHEMBL3879915, “Methods of inhibiting PRMT5” (2014).

Target: PRMT5/MEP50 complex (Homo sapiens, UniProt O14744)
Test: Inhibition of recombinant human fetal brain FLAG-tagged PRMT5/full length human testis 6His-tagged MEP50 expressed in baculovirus infected insect Sf9 cells using human histone H4 (1 to 15 residues) as substrate preincubated for 30 mins followed by [3H]-SAM addition

Sequence of PRMT5/MEP50 complex (O14744 whole entry, the tested form may be a part): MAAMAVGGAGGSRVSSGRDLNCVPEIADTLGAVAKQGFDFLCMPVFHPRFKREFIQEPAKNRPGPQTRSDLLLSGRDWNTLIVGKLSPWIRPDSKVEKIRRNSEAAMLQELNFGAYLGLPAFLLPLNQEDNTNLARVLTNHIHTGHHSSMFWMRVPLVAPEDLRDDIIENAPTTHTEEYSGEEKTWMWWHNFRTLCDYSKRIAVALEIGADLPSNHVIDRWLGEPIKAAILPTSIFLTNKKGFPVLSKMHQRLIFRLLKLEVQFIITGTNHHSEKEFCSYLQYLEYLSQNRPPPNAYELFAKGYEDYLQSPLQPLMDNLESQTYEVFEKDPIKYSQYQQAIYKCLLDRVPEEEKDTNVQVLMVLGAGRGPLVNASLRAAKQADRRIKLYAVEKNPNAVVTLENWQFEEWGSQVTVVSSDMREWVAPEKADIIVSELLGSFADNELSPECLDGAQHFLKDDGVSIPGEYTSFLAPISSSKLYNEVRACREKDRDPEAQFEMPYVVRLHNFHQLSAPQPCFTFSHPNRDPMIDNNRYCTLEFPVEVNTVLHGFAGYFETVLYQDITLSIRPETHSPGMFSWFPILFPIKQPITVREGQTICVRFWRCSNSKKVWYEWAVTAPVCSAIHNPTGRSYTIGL
Sequence of PRMT5/MEP50 complex (Q9BQA1 whole entry, further chain, the tested form may be a part): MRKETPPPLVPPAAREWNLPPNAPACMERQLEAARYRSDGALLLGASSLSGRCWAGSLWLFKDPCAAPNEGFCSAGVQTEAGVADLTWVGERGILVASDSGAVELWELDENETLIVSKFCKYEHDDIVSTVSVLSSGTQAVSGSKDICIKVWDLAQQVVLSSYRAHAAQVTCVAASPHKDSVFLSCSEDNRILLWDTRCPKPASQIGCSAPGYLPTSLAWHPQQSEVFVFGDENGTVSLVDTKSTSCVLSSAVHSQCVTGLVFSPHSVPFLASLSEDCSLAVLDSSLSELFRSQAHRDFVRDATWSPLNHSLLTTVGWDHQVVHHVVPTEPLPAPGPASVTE

SMILES	IC50
OC(COCc1cccnc1)CN1CCc2ccccc2C1 (centres undefined)	10000 to 40000 nM
OC(CCc1cccc(CNC2CCCC2)c1)CN1CCc2ccccc2C1 (centres undefined)	10000 to 40000 nM
CN1CCN(CC(O)CN2CCc3ccccc3C2)C(=O)C1 (centres undefined)	> 50000 nM
OC(COc1ccc(-c2ccn[nH]2)cc1)CN1CCc2ccccc2C1 (centres undefined)	1000 to 10000 nM
CN(C(=O)c1cn(C)cn1)c1cccc(OCC(O)CN2CCc3ccccc3C2)c1 (centres undefined)	1000 to 10000 nM
O=C(Nc1cccc(OCC(O)CN2CCc3ccccc3C2)c1)c1cnco1 (centres undefined)	1000 to 10000 nM
OC(COCc1ccc(CN2CCOCC2)cc1)CN1CCc2ccccc2C1 (centres undefined)	1000 to 10000 nM
Cn1cnc2ccc(-c3cccc(OCC(O)CN4CCc5c(Cl)cccc5C4)c3)cc21 (centres undefined)	1000 to 10000 nM
O=C(NC[C@@H](O)CN1CCc2ccccc2C1)c1ccccc1	1000 to 10000 nM
Cn1cnc2ccc(-c3cccc(OCC(O)CN4Cc5ccccc5C(F)(F)C4)c3)cc21 (centres undefined)	> 10000 nM
OC(COc1cccc(-c2cc(Cl)cc(C(F)(F)F)c2)c1)CN1CCc2ccccc2C1 (centres undefined)	1000 to 10000 nM
O=c1cccc(CC(O)CN2CCc3ccccc3C2)[nH]1 (centres undefined)	10000 to 50000 nM
Cn1cnc2ccc(-c3cccc(OCC(O)CN4CCc5ccccc5C4(C)C)c3)cc21 (centres undefined)	1000 to 10000 nM
COc1ccc(Cl)c(-c2cccc(OCC(O)CN3CCc4ccccc4C3)c2)c1 (centres undefined)	1000 to 10000 nM
CN(CC(O)CN1CCc2ccccc2C1)C(=O)CCc1ccccc1 (centres undefined)	1000 to 10000 nM
Nc1ncccc1OCC(=O)NCC(O)CN1CCc2ccccc2C1 (centres undefined)	1000 to 10000 nM
OCc1ccc(-c2cccc(OCC(O)CN3CCc4ccccc4C3)c2)cc1 (centres undefined)	1000 to 10000 nM
Cc1ccc2c(c1)CN(CC(O)COc1cccc(-c3ccc4ncn(C)c4c3)c1)CC2 (centres undefined)	1000 to 10000 nM
O=C1CN(Cc2ccccn2)CCN1CC(O)CN1CCc2ccccc2C1 (centres undefined)	1000 to 10000 nM
OC(COc1cccc(-c2ccncc2F)c1)CN1CCc2ccccc2C1 (centres undefined)	1000 to 10000 nM
CC1c2ccccc2CCN1CC(O)COc1cccc(CNC2CCCC2)c1 (centres undefined)	1000 to 10000 nM
O=C1CN(C2CCOCC2)CCN1CC(O)CN1CCc2ccccc2C1 (centres undefined)	1000 to 10000 nM

SMILES	IC50
OC(COc1cccc(-c2cccc(Cl)c2)c1)CN1CCc2ccccc2C1 (centres undefined)	1000 to 10000 nM
CN(C(=O)c1cccnc1)c1cccc(OCC(O)CN2CCc3ccccc3C2)c1 (centres undefined)	1000 to 10000 nM
Cn1cnc2ccc(-c3cccc(OCC(O)CN4CCc5ccccc5C4=O)c3)cc21 (centres undefined)	> 40000 nM
CS(=O)(=O)Nc1ncccc1OCC(=O)NCC(O)CN1CCc2ccccc2C1 (centres undefined)	> 10000 nM
OC(COc1cccc(-c2ccncc2)c1)CN1CCc2ccccc2C1 (centres undefined)	1000 to 10000 nM
CN(C(=O)c1cncn1C)c1cccc(OCC(O)CN2CCc3ccccc3C2)c1 (centres undefined)	1000 to 10000 nM
OC(COc1cccc(-c2cccc(C(F)(F)F)c2)c1)CN1CCc2ccccc2C1 (centres undefined)	1000 to 10000 nM
COc1cc2c(cc1OC)CN(CC(O)COc1cccc(-c3ccc4ncn(C)c4c3)c1)CC2 (centres undefined)	> 40000 nM
NS(=O)(=O)c1ccccc1C(=O)NCC(O)CN1CCc2ccccc2C1 (centres undefined)	1000 to 10000 nM
C[C@H](Oc1cccc2cccnc12)C(=O)NC[C@@H](O)CN1CCc2ccccc2C1	1000 to 10000 nM
OC(COc1cccc(CN2CCCCC2)c1)CN1CCc2ccccc2C1 (centres undefined)	1000 to 10000 nM
NC(=O)c1ccc(OCC(=O)NCC(O)CN2CCc3ccccc3C2)cc1 (centres undefined)	1000 to 10000 nM
COc1ccccc1-c1cccc(OCC(O)CN2CCc3ccccc3C2)c1 (centres undefined)	1000 to 10000 nM
OC(COc1ccccc1C1CCCCC1)CN1CCc2ccccc2C1 (centres undefined)	1000 to 10000 nM
COc1cccc2c1CN(CC(O)COc1cccc(-c3ccc4ncn(C)c4c3)c1)CC2 (centres undefined)	1000 to 10000 nM
OC(COc1cccc2ccc(N3CCOCC3)nc12)CN1CCc2ccccc2C1 (centres undefined)	1000 to 10000 nM
CC1CN(CC(O)COc2cccc(CNC3CCCC3)c2)Cc2ccccc21 (centres undefined)	> 40000 nM
O=C1COCCN1CC(O)CN1CCc2ccccc2C1 (centres undefined)	1000 to 10000 nM
O=C(CC1CCCCC1)NC[C@@H](O)CN1CCc2ccccc2C1	10000 to 50000 nM
OC(COc1cccc(-c2cccnc2)c1)CN1CCc2ccccc2C1 (centres undefined)	1000 to 10000 nM
OC(COc1cccc(C2CCCCC2)c1)CN1CCc2ccccc2C1 (centres undefined)	1000 to 10000 nM
COc1ccc(Cn2ccc(-c3ccc(OC[C@@H](O)CN4CCc5ccccc5C4)cc3)n2)cc1	10000 to 40000 nM

SMILES	IC50
OC(COCc1ccncc1)CN1CCc2ccccc2C1 (centres undefined)	10000 to 40000 nM
CCOC(=O)CC1c2ccccc2CCN1CC(O)COc1cccc(-c2ccc3ncn(C)c3c2)c1 (centres undefined)	1000 to 10000 nM
OC(COc1cccc(OCc2ccccc2)c1)CN1CCc2ccccc2C1 (centres undefined)	1000 to 10000 nM
OC(COc1cccc(-c2ccc(Cl)cc2)c1)CN1CCc2ccccc2C1 (centres undefined)	1000 to 10000 nM
CC(C)(C)OC(=O)Nc1ccccc1OCC(=O)NCC(O)CN1CCc2ccccc2C1 (centres undefined)	1000 to 10000 nM
O=C(NC[C@H](O)CN1CCc2ccccc2C1)Oc1ccccc1	1000 to 10000 nM
CC(=O)Nc1ncccc1OCC(=O)NCC(O)CN1CCc2ccccc2C1 (centres undefined)	> 10000 nM
OC(COc1cccc(N2CCc3[nH]nc(-c4ccccc4)c3C2)c1)CN1CCc2ccccc2C1 (centres undefined)	1000 to 10000 nM
O=C(COC1CCOCC1)NCC(O)CN1CCc2ccccc2C1 (centres undefined)	1000 to 10000 nM
CC1Cc2ccccc2CN1CC(O)COc1cccc(-c2ccc3ncn(C)c3c2)c1 (centres undefined)	1000 to 10000 nM
COc1ccc2c(c1)CN(CC(O)COc1cccc(-c3ccc4ncn(C)c4c3)c1)CC2 (centres undefined)	10000 to 40000 nM
Cn1cncc1C(=O)Nc1cccc(OC[C@@H](O)CN2CCc3ccccc3C2)c1	1000 to 10000 nM
Cn1cnc2ccc(-c3cccc(OC[C@@H](O)CN4Cc5ccccc5C4)c3)cc21	10000 to 50000 nM
O=C(NC[C@@H](O)CN1CCc2ccccc2C1)Nc1ccccc1	1000 to 10000 nM
COc1ncc(-c2cccc(OCC(O)CN3CCc4ccccc4C3)c2)cn1 (centres undefined)	1000 to 10000 nM
Cn1cnc2ccc(-c3cccc(OCC(O)CN4CCc5ccccc5C4COc4ccccc4)c3)cc21 (centres undefined)	> 40000 nM
Cc1cccc2c1CN(CC(O)COc1cccc(-c3ccc4ncn(C)c4c3)c1)CC2 (centres undefined)	1000 to 10000 nM
CN(C(=O)c1cocn1)c1cccc(OCC(O)CN2CCc3ccccc3C2)c1 (centres undefined)	10000 to 40000 nM
CNC(=O)Cn1ccc2cnc(-c3cccc(OCC(O)CN4CCc5ccccc5C4)c3)nc21 (centres undefined)	1000 to 10000 nM
CC(=O)Nc1cncc(OCC(=O)NCC(O)CN2CCc3ccccc3C2)c1 (centres undefined)	> 10000 nM
Oc1ccc(-c2cccc(OCC(O)CN3CCc4ccccc4C3)c2)cc1 (centres undefined)	1000 to 10000 nM

Results, then the molecule that gave them:

IC50	SMILES
1000 to 10000 nM	CC1CN(CC(O)COc2cccc(-c3ccc4ncn(C)c4c3)c2)Cc2ccccc21 (centres undefined)
101 to 1000 nM	Cc1cc(OCC(O)CN2CCc3ccccc3C2)c(C)cc1CN1CCOCC1 (centres undefined)
101 to 1000 nM	OC(COc1ccc(Cc2ccccc2)cc1)CN1CCc2ccccc2C1 (centres undefined)
1000 to 10000 nM	O=C(COc1ccc(F)cc1)NCC(O)CN1CCc2ccccc2C1 (centres undefined)
1000 to 10000 nM	Oc1ccc(-c2cccc(OCC(O)CN3CCc4ccccc4C3)c2)cc1F (centres undefined)
1000 to 10000 nM	Cn1cnc2ccc(-c3nccc(NCC(O)CN4CCc5ccccc5C4)n3)cc21 (centres undefined)
1000 to 10000 nM	O=C(Nc1cccnc1)c1cccc(OCC(O)CN2CCc3ccccc3C2)c1 (centres undefined)
101 to 1000 nM	COc1cc(NC2CCOCC2)cc(C(=O)NCC(O)CN2CCc3ccccc3C2)c1 (centres undefined)
1000 to 10000 nM	OC(COc1cccc(-c2ccc(F)cc2)c1)CN1CCc2ccccc2C1 (centres undefined)
101 to 1000 nM	CN(c1cccc(C(=O)NCC(O)CN2CCc3ccccc3C2)c1)C1CCOCC1 (centres undefined)
1000 to 10000 nM	COc1ccc(Cn2cnc3ccc(-c4ccc(OCC(O)CN5Cc6ccccc6C5)cc4)cc32)cc1 (centres undefined)
1000 to 10000 nM	OC(COC1CCCN(c2ccccc2)C1)CN1CCc2ccccc2C1 (centres undefined)
1000 to 10000 nM	COc1ccc(Cn2ccc(-c3ccc(OC[C@H](O)CN4CCc5ccccc5C4)cc3)n2)cc1
1000 to 10000 nM	OC(COc1cccc(-c2ccc(C(F)(F)F)cc2)c1)CN1CCc2ccccc2C1 (centres undefined)
101 to 1000 nM	OC(COc1cccc(CNC2CCCCC2)c1)CN1CCc2ccccc2C1 (centres undefined)
101 to 1000 nM	O=C(Cn1ccc2cnc(-c3cccc(OCC(O)CN4CCc5ccccc5C4)c3)nc21)N1CCCC1 (centres undefined)
1000 to 10000 nM	OC(COc1cccc(CNC2CCNCC2)c1)CN1CCc2ccccc2C1 (centres undefined)
1000 to 10000 nM	OC(COc1cccc(C2=CCCCC2)c1)CN1CCc2ccccc2C1 (centres undefined)
1000 to 10000 nM	OC(COC1CCN(Cc2ccccc2)C1)CN1CCc2ccccc2C1 (centres undefined)
1000 to 10000 nM	CN(C)c1cncc(OCC(=O)NCC(O)CN2CCc3ccccc3C2)c1 (centres undefined)
1000 to 10000 nM	O=C(c1cncc(-c2cccc(OCC(O)CN3CCc4ccccc4C3)c2)c1)N1CCCC1 (centres undefined)
1000 to 10000 nM	O=C(COCc1cccnc1)NCC(O)CN1CCc2ccccc2C1 (centres undefined)

IC50	SMILES
1000 to 10000 nM	Cn1cnc2ccc(-c3cccc(OCC(O)CN4CCc5ccc(Cl)cc5C4)c3)cc21 (centres undefined)
1000 to 10000 nM	OC(COc1cccc(-c2ccccn2)c1)CN1CCc2ccccc2C1 (centres undefined)
1000 to 10000 nM	Cn1cc(-c2cccc(OCC(O)CN3CCc4ccccc4C3)c2)cn1 (centres undefined)
< 100 nM	Cn1ccc2ccc(-c3ccnc(NCC(O)CN4CCc5ccccc5C4)c3)cc21 (centres undefined)
1000 to 10000 nM	O=C1CN(Cc2cccnc2)CCN1CC(O)CN1CCc2ccccc2C1 (centres undefined)
101 to 1000 nM	O=C(COC1CCCCC1)NCC(O)CN1CCc2ccccc2C1 (centres undefined)
101 to 1000 nM	O=C(NCC(O)CN1CCc2ccccc2C1)c1cccc(NC2COC2)c1 (centres undefined)
1000 to 10000 nM	Cn1cc2cc(-c3cccc(OCC(O)CN4CCc5ccccc5C4)c3)ccc2n1 (centres undefined)
1000 to 10000 nM	OC(COc1ccccc1-c1ccno1)CN1CCc2ccccc2C1 (centres undefined)
101 to 1000 nM	CC(=O)N1CCC(n2cnc3ccc(-c4cccc(OCC(O)CN5CCc6ccccc6C5)c4)cc32)CC1 (centres undefined)
101 to 1000 nM	O=C(Cn1ccc2cnc(-c3cccc(OCC(O)CN4CCc5ccccc5C4)c3)nc21)N1CCCCC1 (centres undefined)
< 100 nM	CN1CC(n2cnc3ccc(-c4ccnc(NCC(O)CN5CCc6ccccc6C5)c4)cc32)C1 (centres undefined)
101 to 1000 nM	CN1CCCc2c(OCC(=O)NCC(O)CN3CCc4ccccc4C3)cccc21 (centres undefined)
101 to 1000 nM	OC(COc1ccc(OCC(O)CN2CCc3ccccc3C2)cc1)CN1CCc2ccccc2C1 (centres undefined)
101 to 1000 nM	O=C(Cc1ccccc1)NC[C@H](O)CN1CCc2ccccc2C1
101 to 1000 nM	Cn1cnc2ccc(N3CCCC(OCC(O)CN4CCc5ccccc5C4)C3)cc21 (centres undefined)
101 to 1000 nM	CC(Nc1cccc(C(=O)NCC(O)CN2CCc3ccccc3C2)c1)C1CCOCC1 (centres undefined)
101 to 1000 nM	CC(C)(Oc1ccccc1)C(=O)NCC(O)CN1CCc2ccccc2C1 (centres undefined)
< 100 nM	O=C(NCC(O)CN1CCc2ccccc2C1)c1cc(NC2CCOCC2)ccn1 (centres undefined)
< 100 nM	O=C(NCC(O)CN1CCc2ccccc2C1)c1cncc(NC2CCOCC2)c1 (centres undefined)
< 100 nM	O=C(COc1cccc2c1CCCN2Cc1ccccc1)NCC(O)CN1CCc2ccccc2C1 (centres undefined)
< 100 nM	O=C(NCC(O)CN1CCc2ccccc2C1)c1ccc(OC2CCOCC2)cc1 (centres undefined)
